For 15 compounds, inhibition in vivo and inhibition results are on record in ChEMBL document CHEMBL1130745, “Inhibitory effect and action mechanism of sesquiterpenes from Zedoariae Rhizoma on D-galactosamine/lipopolysaccharide-induced liver injury” (1998).

Holding throughout (assay type): functional
For assay [1], the system named is Mus musculus. Description: In vivo inhibitory activity on the increase of serum GPT induced by D-GalN / LPS (liver injury) in mice at 50 mg/kg peroral administration. The following applies: route oral.
The species named for assay [2] is Mus musculus. Description: In vitro inhibitory activity on the production of nitric oxide (NO) induced by LPS in mouse peritoneal macrophages at a concentration of 10e-4 M.
The species entered for assay [3] is Rattus norvegicus. Description: In vitro hepatocytotoxicity induced by D-GalN in primary cultured rat hepatocytes at a concentration of 10e-4 M. The following applies: Hepatocyte.
Assay [4] has as its system Mus musculus. Description: In vivo inhibitory activity on the increase of serum GOT induced by D-GalN / LPS (liver injury) in mice at 50 mg/kg peroral administration. The following applies: route oral.
Assay [5] relates to Mus musculus. Description: In vivo inhibitory activity on the increase of serum GOT induced by D-GalN / LPS (liver injury) in mice at 20 mg/kg peroral administration. Particulars: route oral.

The inhibition in vivo is the drop in the measured response relative to a control, in per cent. Higher therefore signals a response far below the control. A word on the inhibition: it is the change of the read-out against control, counted positive when it falls. Turning to `CC(C)=C1C/C=C(\C)CC/C=C(\C)CC1=O`, the inhibition in vivo at 50 mg/kg was 82.9% in assay [1] and 78.1% in assay [4]. Moreover, the inhibition at 100 µM was found to be 46.8% in assay [2] and 59.8% in assay [3].

Take `CC1=CC2(O)O[C@@]3(CC2=C(C)C)[C@@H](C)CC[C@@H]13` (single isomer, unassigned) [CURCUMENOL]: the inhibition in vivo at 50 mg/kg is 50.7% in assay [1] and 53.3% in assay [4]. In addition, the inhibition at 100 µM in assay [2] was 50.4%; in assay [3], 25.1%.

Consider `C/C1=C\C/C(=C(/C)CO)C(=O)C/C(C)=C/CC1`, for which the results for the inhibition in vivo at 50 mg/kg in assay [1] and in assay [4] were 36.1% and 21.5%, respectively. Moreover, the values for the inhibition at 100 µM in assay [2] and in assay [3] were -14.6% and -21.7%, respectively.

As to `C[C@]12CCC(=O)C=C1CCC1[C@@H]2[C@@H](O)C[C@@]2(C)[C@H]1CC[C@]2(O)C(=O)CO` (single isomer, unassigned) [HYDROCORTISONE], in assay [1], the inhibition in vivo at 50 mg/kg amounted to 99%. The inhibition at 100 µM in assay [2] came to 92.6%. Also, in assay [5], at 20 mg/kg the inhibition in vivo was 98.3%.

As for `CC(C)=C1CC2[C@@H](CC[C@]2(C)O)[C@](C)(O)CC1=O` (some centres undefined), the inhibition in vivo at 50 mg/kg worked out at 60.7% in assay [1] and 54.7% in assay [4]. Also, the results for the inhibition at 100 µM in assay [2] and in assay [3] were 31.7% and -35.6%, respectively.

On to `C/C1=C\CC[C@H](C)C(=O)C[C@@H](C(C)C)C(=O)C1`, for which the inhibition in vivo at 50 mg/kg in assay [1] was found to be 76.6%; in assay [4] it was 74.6%. In addition, the inhibition at 100 µM is 2% in assay [2] and 77.1% in assay [3].

With `C/C1=C\CC[C@@H](C)C(=O)C[C@@H](C(C)C)C(=O)C1`, the inhibition in vivo at 50 mg/kg in assay [1] amounted to 59.3%; in assay [4] it was 58.4%. Also, the figures for the inhibition at 100 µM in assay [2] and in assay [3] were 41.9% and 44.6%, respectively.

With `COc1cc(/C=C/C(=O)CC(=O)/C=C/c2ccc(O)c(OC)c2)ccc1O` [CURCUMIN], the figures for the inhibition in vivo at 50 mg/kg in assay [1] and in assay [4] were 71.2% and 63.4%, respectively. The values for the inhibition at 100 µM in assay [2] and in assay [3] were 98.8% and -44.3%, respectively.

Turning to `C/C1=C\CC[C@]2(C)O[C@H]2C(=O)c2c(C)coc2C1`, the results for the inhibition in vivo at 50 mg/kg in assay [1] and in assay [4] were 39.5% and 35.4%, respectively. In addition, the inhibition at 100 µM in assay [2] was -5%; in assay [3] it was -7.9%.

Take `CC(=O)CC[C@H]1[C@@H]2CC(=C(C)C)C(=O)C[C@]12C`: the inhibition in vivo at 50 mg/kg in assay [1] turned out to be 90.1%; in assay [4] it was 88%. In addition, the inhibition at 100 µM in assay [2] is 13%; in assay [3] it was -12.2%.

Take `C/C1=C\Cc2c(C)coc2C/C(C)=C/CC1` [ISOFURANODIENE]: the figures for the inhibition in vivo at 50 mg/kg in assay [1] and in assay [4] were 72.9% and 74.3%, respectively. Moreover, the inhibition at 100 µM in assay [2] is 96.1%; in assay [3], -0.5%.

Consider `CC1=CC(=O)C(=C(C)C)CC2[C@@](C)(O)CC[C@]12O` (some centres undefined), for which the inhibition in vivo at 50 mg/kg in assay [1] was determined as 88%; in assay [4], 89.1%. For the same compound, the figures for the inhibition at 100 µM in assay [2] and in assay [3] were -8.8% and -41.5%, respectively.

For `C=C1CC(=O)C(=C(C)C)CC2[C@H]1CC[C@]2(C)O` (some centres undefined), the figures for the inhibition in vivo at 50 mg/kg in assay [1] and in assay [4] were 26.7% and 22.3%, respectively. For the same compound, the inhibition at 100 µM was 54.5% in assay [2] and -5.2% in assay [3].

`C=C1CC2(O)O[C@@]3(CC2=C(C)C)[C@@H](C)CC[C@@H]13` (single isomer, unassigned) [ISOCURCUMENOL]: the inhibition in vivo at 50 mg/kg in assay [1] worked out at 77.3%; in assay [4], 80.2%. Besides, the inhibition at 100 µM was 36.5% in assay [2] and 14.2% in assay [3].

For the compound `CC(C)=C1CC(=O)[C@@H](C)CC/C=C(\C)CC1=O`, the figures for the inhibition in vivo at 50 mg/kg in assay [1] and in assay [4] were 49.7% and 46.2%, respectively. The inhibition at 100 µM in assay [2] is 53.7%; in assay [3] it was -6.3%.
